“Also recorded” adds a separate entry of the source.
Assays:
[1] = system: formation of AGEs (BSA-glucose); assay: BSA-glucose antiglycation assay; type: biochemical; settings: for Protein glycation BSA-Glucose % inhibition: isolated constituents, at the highest test concentration of 3 mM; for IC50: read-out: Protein glycation BSA-Glucose IC50
Protocol: The BSA-glucose and BSA-MGO antiglycation assays were performed as reported before ([Amin et al., 2016]). The test protocol is attached as Supplementary Material ([Amin et al., 2016]).
28 Antiglycation assay (BSA-Glucose assay)
29 In the BSA-glucose assay the prevention of AGEs formation is investigated by determining the
30 fluorescence of the complex formed after incubation of a sugar (glucose) with protein (BSA) in
31 the presence or absence of test compounds. The antiglycation assay was performed according to
32 the method developed by Matsuura et al. (2002) with minor modifications. […]
37 DMSO. The mixtures were incubated at 60°C for 48 h. After incubation, the reaction mixture
38 was allowed to cool down at room temperature. Then 100 µL reaction mixture was transferred
39 to a new plastic tube (1.5 mL) and the reaction was stopped by adding 10 μL of 100% (w/v)
40 trichloroacetic acid (TCA) and to precipitate proteins. The TCA-added mixture was kept at 4°C
41 for 10 min, followed by centrifugation (14000 rpm, 4 °C, 4 min). The supernatant containing
42 unreacted D-glucose, test sample and interfering substances was discarded, whereas the
44 8.1 mM Na2HPO4, 2.68 mM KCl, 1.47 mM KH2PO4, […]). The change in fluorescence
46 of AGEs was monitored by spectrofluorometry (Tecan™ Infinite M200, Giessen, The
47 Netherlands). In order to eliminate interference by autofluorescence of the test compounds, a
48 parallel incubation of test substance with BSA at 60°C without D-glucose was performed for all
50 final concentration) were used as reference compounds.
51 The AGEs inhibition was calculated as
55 where F is the fluorescence intensity.
56 calculated using Sigma plot® 13.0.

[2] = system: AAPH induced linoleic acid peroxidation; assay: Inhibition of linoleic acid lipid peroxidation, AAPH assay; type: biochemical; settings: slope of inhibition time (Tinh) vs. concentration of antioxidant
Protocol: The inhibition of linoleic acid lipid peroxidation was studied according to [Liegeois et al. (2000)] and [Rajic et al. (2010)]. Briefly, 10 μL of a 16 mM linoleic acid dispersion and 10 μL of the test compound (8-1 μM final concentration) were added to the UV cuvette containing 0.93 mL of 0.05 M phosphate buffer, pH 7.4. The oxidation reaction was initiated under air by the addition of 50 μL (40 mM) of AAPH solution. The rate of oxidation at 37°C was monitored by recording the increase of absorption at 234 nm caused by conjugated diene hydroperoxides. The results were compared to the standard inhibitor (Trolox). The AOP is defined as the slope of the curve representing the inhibition time of oxidation (Tinh) vs. the concentration of antioxidant and is expressed in min/μM.

[3] = system: Trypanosoma cruzi, Tulahuen LacZ, clone C4; assay: Antimicrobial screening panel: Trypanosoma cruzi; type: cell-based
Protocol: (§1) Fractions and isolated compounds were evaluated for antimicrobial activity in an integrated screening panel, also including the human MRC-5 cell line to assess selectivity, as reported before ([Cos et al., 2006]; [Mesia et al., 2008]; [Baldé et al., 2010]; [Amin et al., 2016]).

Plasmodium falciparum K1 = assay: Antimicrobial screening panel: Plasmodium falciparum; type: cell-based
Protocol: as §1

[4] = system: MRC-5, human fetal lung fibroblasts
Protocol: as §1

Staphylococcus aureus = assay: Antimicrobial screening panel: Staphylococcus aureus; type: cell-based
Protocol: as §1

Structure (SMILES) | Protein glycation BSA-Glucose % inhibition [1] | AAPH assay AOP (antioxidant power) [2] | IC50 [1] | IC50 [3] | IC50 (Plasmodium falciparum K1) | cytotoxicity against MRC-5 cells [4] | IC50 (Staphylococcus aureus)
COC(=O)c1ccc(O)cc1 [Compound 7, 4-Hydroxy benzoic acid methyl ester] | did not present any inhibition; also recorded: no activity | did not present any activity; also recorded: Not active | – | – | – | – | –
COc1ccc(-c2cc(=O)c3c(O)c(OC)c(O[C@@H]4O[C@H](CO[C@@H]5O[C@@H](C)[C@H](O)[C@@H](O)[C@H]5O)[C@@H](O)[C@H](O)[C@H]4O)cc3o2)cc1 [Compound 6, Pectolinarin] | – | 0.3 min/µM | 2290 µM | – | – | – | –
CO[C@H]1C[C@@]2(O)[C@H](O)[C@@H](O)[C@](C)(OC)[C@H]2[C@@H](OC)O1 [Compound 1, Kickxiasine] | 26% | 0.3 min/µM | – | – | – | – | –
CC1(O)CCC2C(C(=O)O)=COC(OC3OC(CO)C(O)C(O)C3O)C21 (stereo not shown) [Compound 2, Mussaenosidic acid] | 35% | 0.2 min/µM | – | – | – | – | –
COC(=O)C1=COC(OC2OC(CO)C(O)C(O)C2O)C2C1CCC2(C)O (stereo not shown) [Compound 3, Mussaenoside] | 28% | 0.1 min/µM | – | – | – | – | –
COc1ccc(-c2cc(=O)c3c(O)c(OC)c(O)cc3o2)cc1 [Compound 5, Pectolinarigenin] | – | 0.2 min/µM | 790 µM | 32 µM | 41.8 µM | not cytotoxic | 49.8 µM

From article PMC5410595, “In Vitro and In Silico Antidiabetic and Antimicrobial Evaluation of Constituents from Kickxia ramosissima (Nanorrhinum ramosissimum)” (Frontiers in Pharmacology, 2017)
